The values below come from paper PMC6675120, “Potent and selective inhibitors for M32 metallocarboxypeptidases identified from high-throughput screening of anti-kinetoplastid chemical boxes” (PLoS Neglected Tropical Diseases, 2019).

In one data set the test system is NIH 3T3. Also noted: method as in https://pubchem.ncbi.nlm.nih.gov/compound/91800813. Conditions: ref https://pubchem.ncbi.nlm.nih.gov/compound/91800813, read-out: cytotoxicity IC50; cited from earlier work.
The target in another data set is TcMCP-1 (Trypanosoma cruzi, UniProt Q6ZXC0). Nature of the data set: Continuous fluorogenic (FRET) TcMCP-1 assay with Abz-LKFK(Dnp)-OH, primary and secondary screening. It counts as biochemical. Also noted: inhibition: dose or concentration left out as unconfirmed.
For another data set, the system named is T. cruzi. Also noted: method as in https://pubchem.ncbi.nlm.nih.gov/compound/91800813. Conditions: ref https://pubchem.ncbi.nlm.nih.gov/compound/91800813; cited from earlier work.
Another data set deals with T. brucei. On the set-up: method as in https://pubchem.ncbi.nlm.nih.gov/compound/91800813. Conditions: ref https://pubchem.ncbi.nlm.nih.gov/compound/91800813; cited from earlier work.
The next data set relates to cruzipain. On the set-up: method as in PMID 28935948. Conditions: at 25 μM; cited from earlier work.

Like-named read-outs stand apart in the source and are kept apart here.

TcMCP-1, sequence (Q6ZXC0 entry or part of it): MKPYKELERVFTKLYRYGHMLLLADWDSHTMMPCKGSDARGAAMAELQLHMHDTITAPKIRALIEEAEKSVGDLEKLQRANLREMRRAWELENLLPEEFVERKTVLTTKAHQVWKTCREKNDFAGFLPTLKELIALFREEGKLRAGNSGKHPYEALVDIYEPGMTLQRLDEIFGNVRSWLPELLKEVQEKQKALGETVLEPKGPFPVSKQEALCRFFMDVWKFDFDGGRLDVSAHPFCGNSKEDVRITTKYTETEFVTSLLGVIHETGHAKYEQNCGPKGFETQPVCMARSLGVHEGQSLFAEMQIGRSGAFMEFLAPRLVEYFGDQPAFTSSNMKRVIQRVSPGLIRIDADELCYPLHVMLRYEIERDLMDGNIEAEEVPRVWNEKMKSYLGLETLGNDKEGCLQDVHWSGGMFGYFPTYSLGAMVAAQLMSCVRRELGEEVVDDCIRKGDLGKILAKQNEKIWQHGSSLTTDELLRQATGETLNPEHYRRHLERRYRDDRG

As usually defined, the IC50 is the concentration that gives 50% inhibition. By inhibition is commonly meant the change of the read-out against control, counted positive when it falls. Take `N#Cc1ccc(S(=O)(=O)N2CCN(Cc3cccc(-c4ccncc4)c3)CC2)cc1` [TCMDC-143620]: the IC50 in the data set on NIH 3T3 was 13 µM; against TcMCP-1, 0.694 µM; against TcMCP-1 (secondary screening, two-fold dilutions 7,5 pM to 62,5 μM, KM/[S] ~ 1, no replicates) it was at most 10 µM. Besides, the “TcMCP-1 Hill Slope” value at TcMCP-1 (four-parameter Hill fit of dose-response curve) is listed as -1,06. Also, the inhibition at TcMCP-1 (read-out: TcMCP-1 Secondary screening Inhibition (%)) is 96.7%. Moreover, the “TcMCP-1 2º/1º ratio” value at TcMCP-1 (secondary (31,5 µM) / primary (25 µM) inhibition) is on record as 1,18. On TcMCP-1 (single inhibitor concentration 25 µM), this molecule had an inhibition at 25 µM of 82.1%. Moreover, in the data set on T. cruzi, the “activity against T. cruzi in culture” value is given as “potent activity”. Moreover, the “activity on T. brucei” value with T. brucei is reported as “moderate but measurable activity”. The cruzipain inhibition in the data set with cruzipain is ~ 7,5%.
